Columns and labels:
Type in all cases: biochemical
PDE3B = molecular target: T1, PDE3B (Homo sapiens, UniProt Q13370); experiment: PDE3B enzyme inhibition (HTRF, cAMP substrate); conditions: human recombinant enzyme (Sf9); FIGS. 14 and 15; test concentration not given
T1 construct: host or cells: Sf9
Description: The effects of compounds BL-230 and BL-236 on human PDE3B enzyme activity was quantified by measuring the production of 5′AMP from CAMP using human recombinant enzyme expressed in Sf9 cells and the detection method was by using HTRF®.
The test compound, the reference compound or water (control) were mixed with 0.7 U of the enzyme PDE3B in a buffer containing 50 mM Tris-HCl, 6 mM MgCl2, 3 mM DTT and 0.05% Tween® 20 (pH 7.8). Then, the reaction was initiated by addition of 40 nM of cAMP substrate and the mixture was incubated for 30 minutes at 22° C. For basal control measurements, the enzyme was omitted from the reaction mixture. The fluorescence acceptor (Dye2 labeled cAMP) and fluorescence donor (anti-cAMP antibody labeled with europium cryptate) were added in the presence of 1 mM IBMX. After 60 minutes, the transfer of fluorescence corresponding to the amount of residual cAMP was measured at λex=337 nm, λem=620 nm and λem=665 nm using a microplate reader (RubyStar, BMG). The enzyme activity was determined by the signal division measured at 665 nm, by the signal measured at 620 nm (right). The results were expressed as an inhibition percentage of the control enzyme activity. The standard inhibitory reference compound milrinone was used, which was tested in each experiment at several concentrations to obtain an inhibition curve from which its IC50 value was calculated. […]

PDE10A2 = molecular target: T2, PDE10A2 (Homo sapiens, UniProt Q9Y233); experiment: PDE10A2 enzyme inhibition (HTRF, cAMP substrate); conditions: human recombinant enzyme (Sf9); FIG. 14; test concentration not given
T2 construct: host or cells: Sf9
T2 sequence (Q9Y233 267-1055): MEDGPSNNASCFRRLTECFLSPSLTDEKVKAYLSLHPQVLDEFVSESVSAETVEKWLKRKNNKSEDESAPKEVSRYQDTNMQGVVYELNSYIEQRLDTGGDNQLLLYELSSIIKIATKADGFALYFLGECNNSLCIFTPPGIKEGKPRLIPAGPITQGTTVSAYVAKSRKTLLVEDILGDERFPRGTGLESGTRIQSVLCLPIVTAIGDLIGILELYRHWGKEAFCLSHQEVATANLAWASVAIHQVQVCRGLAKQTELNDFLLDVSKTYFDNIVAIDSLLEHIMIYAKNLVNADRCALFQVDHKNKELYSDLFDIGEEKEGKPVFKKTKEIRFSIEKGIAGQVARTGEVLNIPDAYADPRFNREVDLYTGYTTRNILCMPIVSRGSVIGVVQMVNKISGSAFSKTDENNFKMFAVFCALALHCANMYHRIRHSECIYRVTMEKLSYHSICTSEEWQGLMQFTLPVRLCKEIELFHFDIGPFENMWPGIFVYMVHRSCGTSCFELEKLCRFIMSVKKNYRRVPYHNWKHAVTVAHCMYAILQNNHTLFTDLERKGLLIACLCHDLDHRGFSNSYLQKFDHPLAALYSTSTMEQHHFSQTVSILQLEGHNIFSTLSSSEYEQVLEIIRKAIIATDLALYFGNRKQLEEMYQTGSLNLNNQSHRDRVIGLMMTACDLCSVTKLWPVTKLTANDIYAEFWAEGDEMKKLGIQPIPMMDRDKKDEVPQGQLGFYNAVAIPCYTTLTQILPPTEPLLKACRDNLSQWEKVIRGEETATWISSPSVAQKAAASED
From the text: The effects of the BL-230 and BL-236 compounds on the activity of the human enzymes PDE2A1, PDE3A, PDE4A1A, PDE4B1, PDE7A, PDE8A1, and PDE10A2 and PDE11A4 were quantified by measuring the production of adenosine 5′-monophosphate (5′AMP) from cyclic adenosine monophosphate (cAMP), with human recombinant enzyme expressed in Sf9 cells and the detection method was by using HTRF®.
The test compound, the reference compound or water (control) were mixed with the enzyme (the enzymes and their amounts used are described in Table 1) in a buffer containing 44.4 mM Tris-HCl, 5.28 mM MgCl2, 2.64 mM DTT and 0.044% Tween® 20 (pH 7.8). Then, the reaction was initiated by the addition of 40 nM of cAMP substrate and the mixture was incubated for 30 minutes at room temperature. For basal control measurements, the enzyme was omitted from the reaction mixture. The fluorescence acceptor (Dye2 labeled cAMP) and fluorescence donor (anti-cAMP antibody labeled with europium cryptate) were added in the presence of 1 mM IBMX. After 60 minutes, the fluorescence corresponding to the amount of transfer residual cAMP was measured at λex=337 nm, λem=620 nm and λem=665 nm using a microplate reader (RubyStar, BMG). The enzyme activity was determined by the signal division measured at 665 nm, by the measured signal at 620 nm (right). The results were expressed as a inhibition percentage of the control enzyme activity. […]

PDE5 = molecular target: T3, PDE5 (Homo sapiens, UniProt O76074); experiment: PDE5 enzyme inhibition (SPA, enzyme isolated from human platelets); conditions: FIGS. 14 and 15, test concentration not given
T3 construct: using an enzyme isolated from Cerep human platelets; tissue Cerep; host or cells: human platelets
Description: The effects of compounds BL-230 and BL-236 on human PDE5 enzyme activity was quantified by measuring the production of 5′GMP from cGMP using an enzyme isolated from Cerep human platelets and the utilized detection method was scintillation proximity assay (SPA).
The test compound, the reference compound or water (control) were added to a buffer containing 40 mM Tris-HCl (pH 7.8), 3 mM MgCl2, 1.4 mM DTT, 0.21% BSA, 200 mM ammonium chloride (NH4Cl), 1 μM cGMP and 0.1 μCi of [^3H]cGMP. Then the reaction was started by adding the enzyme (final amount depending on the efficiency of the isolation) and the mixture was incubated for 60 minutes at 22° C. For basal control measurements, the enzyme was omitted from the reaction mixture. Following this, the SPA incubation beads were added. After 20 min at 22° C. under agitation, the amount of [^3H] 5′GMP was quantified with a scintillation counter (Topcount, Packard). The results were expressed as an inhibition percentage of the control enzyme activity. The standard inhibitory reference compound dipyridamole was used, which was tested in each experiment at several concentrations to obtain an inhibition curve from which its IC50 value was calculated. […]

T1 sequence (Q13370 whole entry): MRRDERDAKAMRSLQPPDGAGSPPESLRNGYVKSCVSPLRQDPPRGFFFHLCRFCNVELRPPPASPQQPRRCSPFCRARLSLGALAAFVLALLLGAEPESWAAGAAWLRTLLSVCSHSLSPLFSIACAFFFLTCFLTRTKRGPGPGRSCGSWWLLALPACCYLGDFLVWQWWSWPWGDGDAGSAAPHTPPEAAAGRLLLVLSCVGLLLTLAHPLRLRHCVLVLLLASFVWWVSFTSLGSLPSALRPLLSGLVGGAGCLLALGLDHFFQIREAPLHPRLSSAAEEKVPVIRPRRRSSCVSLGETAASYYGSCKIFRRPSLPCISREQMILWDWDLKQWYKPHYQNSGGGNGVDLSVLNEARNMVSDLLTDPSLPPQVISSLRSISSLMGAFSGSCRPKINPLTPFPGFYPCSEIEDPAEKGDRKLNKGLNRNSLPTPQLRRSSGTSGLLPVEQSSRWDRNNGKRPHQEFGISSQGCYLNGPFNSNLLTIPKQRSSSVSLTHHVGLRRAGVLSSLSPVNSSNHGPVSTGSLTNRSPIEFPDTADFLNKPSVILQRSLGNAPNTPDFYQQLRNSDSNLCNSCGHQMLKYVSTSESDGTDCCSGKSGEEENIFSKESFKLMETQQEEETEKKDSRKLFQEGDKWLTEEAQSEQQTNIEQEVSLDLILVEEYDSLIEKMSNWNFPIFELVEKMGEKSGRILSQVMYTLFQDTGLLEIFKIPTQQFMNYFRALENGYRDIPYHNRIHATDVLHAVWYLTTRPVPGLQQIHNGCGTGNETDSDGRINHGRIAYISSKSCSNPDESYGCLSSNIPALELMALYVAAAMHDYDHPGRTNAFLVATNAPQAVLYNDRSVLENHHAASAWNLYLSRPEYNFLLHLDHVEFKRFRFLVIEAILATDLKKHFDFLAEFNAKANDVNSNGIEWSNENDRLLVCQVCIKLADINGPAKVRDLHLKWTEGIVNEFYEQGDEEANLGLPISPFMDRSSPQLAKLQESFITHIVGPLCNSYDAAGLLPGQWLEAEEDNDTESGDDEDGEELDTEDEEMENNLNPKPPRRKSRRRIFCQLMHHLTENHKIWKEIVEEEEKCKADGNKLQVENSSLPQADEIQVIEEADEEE

With O=C1C2=C(c3c[nH]c4ccccc34)OC(c3ccc4c(c3)OCO4)N2C(=O)CN1CCO (centres unmarked) [BL-230, 3-(benzo[d][1,3]dioxol-5yl)-7-(2-hydroxyethyl)-1-(1H-indol-3-yl)-6,7-dihydro-3H-oxazolo[3,4-a]pyrazine-5,8-dione] as the compound, how does the “inhibition of PDE3B enzyme activity” value (PDE3B) read?
Its value is “did not inhibit”.

What about the “inhibition of PDE10A2 enzyme activity” value (PDE10A2) of the same compound?
The value was 35%.

And the “inhibition of PDE5 enzyme activity” value (PDE5)?
The value was 90%.

Which results are given for C[C@@H](CO)N1CC(=O)N2C(=C(c3c[nH]c4ccccc34)OC2c2ccc3c(c2)OCO3)C1=O (stereo partly drawn) [BL-236, 3-(benzo[d][1,3]dioxol-5yl)-7-((S)1-hydroxypropan-2yl)-1-(1H-indol-3-yl)-6,7-dihydro-3H-oxazolo[3,4-a]pyrazine-5,8-dione]?
inhibition of PDE3B enzyme activity (PDE3B): did not inhibit; inhibition of PDE5 enzyme activity (PDE5): 86%

From patent publication US9359378B2, “Substituted oxazolo[3,4-a]pyrazines as pharmaceutcals” (BIOLAB SANUS FARMACÊUTICA LTDA., priority 2014, dated 2016)
